Experimental data published in US20030203963A1, “Antimicrobial agent” (priority 2001, published 2003).

Legend:
Bacillus cereus 204 = experiment: Well diffusion test; assay type: cell-based; details: 20 μl of 49.3 mg/ml (4.9%) APP sample E002012
Method: (§1) Seeded 10 ml agar plates of various test organisms were prepared, with inoculation of either 20 μl spore suspension or overnight broth. This gave an inoculum level of ca. 10^5-10^6 cfu/ml. After the plates had set, small wells were cut, and 20 μl of APP sample was loaded. Plates were incubated overnight at appropriate temperature and examined after 1-2 days (after which microbial growth is clearly visible) for zones of inhibition.

[1] = system: Brochothrix thermosphacta CRA7883; experiment: Well diffusion test; assay type: cell-based; details: 20 μl of 49.3 mg/ml (4.9%) APP sample E002012
Method: as §1

[2] = system: Clostridium sporogenes Campden; experiment: Well diffusion test; assay type: cell-based; details: 20 μl of 49.3 mg/ml (4.9%) APP sample E002012
Method: as §1

Lactobacillus sake A10 = experiment: Well diffusion test; assay type: cell-based; details: 20 μl of 49.3 mg/ml (4.9%) APP sample E002012
Method: as §1

[3] = system: Listeria monocytogenes S23; experiment: Well diffusion test; assay type: cell-based; details: 20 μl of 49.3 mg/ml (4.9%) APP sample E002012
Method: as §1

Micrococcus luteus = experiment: Well diffusion test; assay type: cell-based; details: 20 μl of 49.3 mg/ml (4.9%) APP sample E002012
Method: as §1

[4] = system: Pseudomonas fluorescens 327; experiment: Well diffusion test; assay type: cell-based; details: 20 μl of 49.3 mg/ml (4.9%) APP sample E002012
Method: as §1

[5] = system: Saccharomyces carlsbergensis CRA6413; experiment: Well diffusion test; assay type: cell-based; details: 20 μl of 49.3 mg/ml (4.9%) APP sample E002012
Method: as §1

[6] = system: Saccharomyces cerevisiae ATCC 9763; experiment: Well diffusion test; assay type: cell-based; details: 20 μl of 49.3 mg/ml (4.9%) APP sample E002012
Method: as §1

[7] = system: S cerevisiae var. paradoxus H103; experiment: Bioscreen growth inhibition test; assay type: cell-based, Saccharomyces cerevisiae var. paradoxus; details: APP 213, BS010420, 72 h/25° C.
Method: (§2) For broth cultures and Bioscreen testing most bacteria were grown in Brain Heart Infusion (BHI, Oxoid, pH 7.4). Lactobacillus sake A10 was grown in de Man, Rogosa, Sharpe medium ([…], Oxoid). Yeasts were grown in Sabouraud Liquid medium (SLM, Oxoid). Most bacteria were cultured at 30° C. Lactic acid bacteria were grown on solid medium in enriched CO2 atmosphere. Clostridium species were grown in Reinforced Clostridial Medium (RCM) at 37° C. anaerobically. Brochothrix thermosphacta fungi and yeasts were grown at 25° C. Fungi were cultured on Malt Extract Agar (MEA, Oxoid).
(§3) An automated Microbiology Reader Bioscreen C was used to measure growth curves of the strains in the presence and absence of APP. The Bioscreen C measures the development of turbidity (i.e. growth) kinetically by vertical photometry in 200 wells of a honeycomb microtitre plate, simultaneously. The system consists of a Bioscreen C analyser, which is an incubator and measurement unit, integrated with a PC, software (BioLink v 5.30), printer and a ‘Honeycomb 2’ cuvette multiwell plate. Growth curve data can be analysed within the BioLink software or exported to programs such as Excel.
Broth culture media were dispensed in 270 μl volumes into the wells as directed. […] (depending on the micro-organism under investigation) with readings taken every 20 minutes after the trays were shaken. […]

B. cereus 204 [8] = experiment: Test in cooked sausage meat slurry; assay type: cell-based, Bacillus cereus
From the text: (§4) 500 g of bologna sausage meat mixture was mixed with 500 g Brain Heart Infusion broth (BHIB) to make a homogeneous slurry. The bologna sausage meat mix comprised (g per kg): lean beef 320; lean pork 202; lard 250; water 40; glucose 5; starch 155; spice mix 3.75; sodium glutamate 0.5; sodium erythorbate 0.545; sodium di-phosphate 3; NaCl 20; sodium nitrite 0.15. 200 g samples of the meat slurry were autoclaved. While the meat was still warm it was re-mixed thoroughly. When the meat had cooled it was inoculated with 2 ml of 10^5 cfu/ml spore or cell suspension, and re-mixed again. Each inoculated meat sample was divided into 3×50 g samples, and 1 ml of either SDW, 2.5% or 5% APP solution (batch number APP 20010215) was added to prepare meat samples containing 0, 500 and 1000 ppm APP. The meat slurry was again shaken thoroughly to ensure even mixing, an initial viable count was taken and the samples incubated at 8° C. Samples were taken at twice-weekly intervals. The pH of the sausage meat slurry was 6.2.

L. monocytogenes 272 = experiment: Test in cooked sausage meat slurry; assay type: cell-based, Listeria monocytogenes
From the text: as §4

Lb. sake A10 = experiment: Test in cooked sausage meat slurry; assay type: cell-based, Lactobacillus sake; details: for Effect on growth: cooked sausage meat slurry at 8° C., pH 6.2, TSM010605
From the text: as §4

B. cereus 204 [9] = experiment: Test in cooked minced beef slurry; assay type: cell-based, Bacillus cereus; details: minced beef slurry at 8° C., pH 6.24, TCM010619
Method: (§5) 1 kg of minced beef, purchased from the local butcher, was mixed with 1 litre of BHI. 200 g portion of this meat slurry was autoclaved. When the meat had cooled, the pH was recorded (pH 6.24), and each pot was inoculated with 2.0 ml of 10^5 spores or cells and the meat re-mixed thoroughly. Each inoculated 200 g pot was distributed as 3×50 g portions. To each pot 1 ml of SDW, 5% or 10% APP (Batch No. APP20010215) was added, and the meat was again mixed thoroughly. An initial viable count was performed, the meat was incubated at 8° C. and sampled twice weekly. The pH of the cooked minced beef slurry was 6.24.

Salm Typhimurium S29 = experiment: Test in cooked minced beef slurry; assay type: cell-based, Salmonella Typhimurium
Method: as §5

Ps. fluorescens 3756 = experiment: Test in cooked minced beef slurry; assay type: cell-based, Pseudomonas fluorescens
Method: as §5

Most yeasts = experiment: Lab media at optimum temperature (summary); assay type: cell-based
Method: as §2, §3
(§6) Broth culture media were dispensed in 270 μl volumes into the wells as directed. Serial dilutions of a filter-sterilised APP stock solution were then dispensed into the same wells, as appropriate. The wells were inoculated with 30 μl of an appropriately diluted overnight broth culture or spore suspension, to give a final inoculum level of […]. The tests were incubated in the Bioscreen C for either 24 h at 30° C., or 72 h at 25° C. (depending on the micro-organism under investigation) with readings taken every 20 minutes after the trays were shaken. After the incubation period was complete the data were exported to Excel for analysis.

Salmonella spp = experiment: Lab media at optimum temperature (summary); assay type: cell-based
Method: as §2, §3, §6

[10] = 1000 ppm, cooked sausage meat slurry at 8° C., pH 6.2, TSM010605
[11] = Cooked sausage meat slurry at 8° C. pH 6.2, (1000)
[12] = 2000 ppm, minced beef slurry at 8° C., pH 6.24, TCM010619
[13] = Cooked minced beef slurry at 8° C. pH 6.24

O=C1CC(CO)OC=C1O (stereo not drawn) [APP, Ascopyrone P]
Sensitivity in well diffusion (zones of inhibition) (Bacillus cereus 204): sensitive
Sensitivity in well diffusion (zones of inhibition) [1]: sensitive
Sensitivity in well diffusion (zones of inhibition) [2]: sensitive
Sensitivity in well diffusion (zones of inhibition) (Lactobacillus sake A10): sensitive
Sensitivity in well diffusion (zones of inhibition) [3]: sensitive
Sensitivity in well diffusion (zones of inhibition) (Micrococcus luteus): sensitive
Sensitivity in well diffusion (zones of inhibition) [4]: sensitive
Sensitivity in well diffusion (zones of inhibition) [5]: sensitive
Sensitivity in well diffusion (zones of inhibition) [6]: sensitive
APP level causing significant inhibition [7]: 2000
APP level causing total inhibition [7]: >4000
10^6 reached at (B. cereus 204 [8]; 1000 ppm, cooked sausage meat slurry at 8° C., TSM010605, controls 5 d): 7 d
Effect on growth (B. cereus 204 [8]; [10]): No total inhibition
Partial inhibition (effect on growth of target organism by APP) (B. cereus 204 [8]; [11]): B. cereus (1000)
10^6 reached at (L. monocytogenes 272; 1000 ppm, cooked sausage meat slurry at 8° C., TSM010605, controls 7 d): 7 d
Effect on growth (L. monocytogenes 272; [10]): No total inhibition
Partial inhibition (effect on growth of target organism by APP) (L. monocytogenes 272; [11]): L. monocytog.
Effect on growth (Lb. sake A10; 500 ppm): No effect with 500 and 1000 ppm
Effect on growth (Lb. sake A10; 1000 ppm): No effect with 500 and 1000 ppm
No inhibition (effect on growth of target organism by APP) (Lb. sake A10; [11]): Lb. sake (1000)
Effect on growth (B. cereus 204 [9]; 1000 ppm): 1000 ppm extended lag phase.
Growth to 10^6 delayed by (B. cereus 204 [9]; 2000 ppm): 2000 ppm delayed growth to 10^6 by 7 d.
Total inhibition for (Salm Typhimurium S29; [12]): Total inhibition by 2000 ppm for >44 d
Total inhibition (effect on growth of target organism by 2000 ppm APP) (Salm Typhimurium S29; [13]): S. Typhimurium
Growth delayed by (Ps. fluorescens 3756; 1000 ppm, minced beef slurry at 8° C., pH 6.24, TCM010619): 1000 ppm delayed growth by 17 d
Total inhibition for (Ps. fluorescens 3756; [12]): Total inhibition by 2000 ppm for 27 d
Total inhibition (effect on growth of target organism by 2000 ppm APP) (Ps. fluorescens 3756; [13]): Ps. fluorescens
Effect on growth of target organism by 2000 ppm APP (remark in No inhibition column) (Most yeasts): (enhanced growth)
No inhibition (effect on growth of target organism by 2000 ppm APP) (Most yeasts): Most yeasts
Partial inhibition (effect on growth of target organism by 2000 ppm APP) (Salmonella spp): Salmonella spp
